Structures are written as SMILES.

This note sets out measurements from US12636291B2, “Compositions and methods relating to use of agonists of ALPHA5-containing GABAA receptors” (Centre for Addiction and Mental Health, priority 2019, dated 2026).

The test has as its system SV129 mice. In words: Neurogenesis (proliferation, survival, maturation) in the SV129 mouse model. In kind it is in vivo. To be noted: compared to VEH. An excerpt:
We next assessed the effects of GL-II-73 on neurogenesis using the SV129 mouse model Kim et al. 2017. Neural Plasticity, doi.org.10.1155/2017/5863258. Specifically, we assessed the effects of treatment on neuronal cell proliferation, survival, and maturation. It is now recognized that neurogenesis occurs not only during development, but also in the adult brain. […] Specifically, adult neurogenesis is known to occur in three regions in the mammalian brain: (i) the subgranular zone (SGZ) of the dentate gyrus in the hippocampus, which is a region that is involved in regulating learning and memory; (ii) the subventricular zone (SVZ), which is situated throughout the lateral walls of the brain's lateral ventricles; and (ii) the amygdala. New neurons born in the SGZ migrate into the granule cell layer of the dentate gyrus and eventually become granule cells. These newborn neurons integrate into the existing circuitry and receive functional input. Adult neurogenesis in the hippocampus is therefore defined as the progression from neural stem cell to mature dentate granule neuron. All stages of adult neurogenesis are regulated by physiological activity, including the proliferation, differentiation, fate determination of adult neural stem cells (NSCs) and progenitors, and the survival, maturation, and integration of newborn neurons.
The stages of neurogenesis can be broken down into (i) proliferation, (ii) survival of the newly formed cells, and (iii) their maturation. Each can be evaluated using specific markers for proliferation, survival, and maturation. […] BrdU can be used to show survival of the newly proliferating cells since it is incorporated into the newly synthesized DNA of replicating cells and is then maintained in the newly formed cells. Thus, quantitative immunohistochemistry against BrdU is used as a proxy of survival. Finally, doublecortin can be used as a proxy of maturation. Previous studies have shown that all steps of neurogenesis were down regulated in the SV129 mice, and further that chronic treatment with fluoxetine, a first line monoaminergic antidepressant, increased the neurogenesis in this mouse model. We therefore used this model system to assess the effects of chronic treatment with GL-II-73 on neurogenesis.
Fluoxetine treatment was used as a positive control in each experiment.

As to `CNCCC(Oc1ccc(C(F)(F)F)cc1)c1ccccc1` (stereo not shown) [FLX, fluoxetine], the “proliferation: number of K167-positive cells” value (chronic treatment (4 weeks), FIG. 13A, FLX p<0.001, GL-II-73 p<0.05) is given as “increased the number of K167-positive cells”. The “survival: BrdU-positive cells” value (chronic treatment (4 weeks), FIG. 13B) is reported as “only FLX increased BrdU-positive cells”. In addition, the “maturation: number of DCX+cells” value (chronic treatment, FIG. 14A, ps<0.05) was “increased with FLX compared to VEH”. Further, the “maturation index (DCX+cells possessing tertiary dendrites over the total DCX+cells)” value (chronic treatment, FIG. 14B, ps<0.01) was “an increase with both FLX and GL-II-73”.
